Measured values taken from patent publication US8501715B2, “Oxidized lipids and uses thereof in the treatment of inflammatory diseases and disorders” (Vascular Biogenics Ltd., priority 2003, dated 2013).
“Also recorded” adds a separate entry of the source. Like-named read-outs stand apart in the source and are kept apart here.

Legend:
IL-12 = assay: RT-PCR cytokine expression in the aorta: IL-12; format: in vivo; conditions: oral 1 mg/mouse 5 times every other day, 8 weeks after final administration
Method: (§1) The effect of ALLE, CI-201, its corresponding acetal derivatives Et-acetal and Me-acetal (Compounds IIa and IIb, FIG. 10) and oxLDL on cytokine expression in the target organ—the aorta—was evaluated using RT-PCR as described hereinabove. […] Oral administrations took place 5 times every other day.

IL-27p28 = assay: Q-PCR RNA expression in CD11c+ BMDC's: IL-27p28; conditions: CI-201 20 μg/ml, PGN 10 μg/ml
Serum Amyloide A (SAA) = assay: Inflammatory markers in serum (ELISA): SAA; format: in vivo; conditions: oral 0.1 μg/mouse 5 times every other day; day 0, 2 and 4 weeks; control group dramatically increased
Method: (§2) Inflammatory Markers Evaluation in Serum: Serum was separated by centrifuge and stored at −70° C. Analysis of inflammatory markers was performed by ELISA (IL-10; R&D and SAA; BIOSOURCE).
(§3) Thus, Apo-E KO mice were orally administered with 0.1 μg/mouse CI-201 or 0.2 ml/mouse PBS, 5 times every other day. Mice serum was collected before treatment (day 0), at the end of the treatment (two weeks) and two weeks thereafter (4 weeks) and the level of the inflammation markers IL-10 and Serum Amyloide A (SAA) were evaluated.

IL-6 = conditions: BMDC's, PGN activation
Method: BMDC's were incubated for 1 hour with different CI-201 concentrations prior to activation with 10 μg/ml of PGN. Supernatant were collected 24 hours following activation and the levels of IL-6 (FIG. 3M) and IL-1 (FIG. 3N) were measured.
(§4) Cytokine analysis: For the detection of cytokine production, supernatants from BMDC's and Mo-DC's following a 24 hour treatment were tested with Duoset ELISA kits for mouse IL12p40, TNF-α, IL-6 and human IL12p40 and TNF-α (R&D systems, Minneapolis, Minn.) respectively.

IL12p40 [1] = assay: p40 production by activated BMDC's (ELISA); format: cell-based, mouse
TNF-α [2] = conditions: splenic CD11b cells, IFN-γ over night, PGN 24 hours
Method: (§5) Isolation of Monocytes/Macrophages: Spleens were removed and a cell suspension was prepared. Erythrocytes were depleted using red blood cell (RBC) lysis buffer (Beit Haemek, Israel). Cells were washed in phosphate buffer saline (PBS) (Beit Haemek, Israel), and incubated in 4° C. for 15 min in buffer containing PBS and 0.5% bovine serum albumin (BSA) with mouse CD11b microbeads (Miltenyi biotech, Bergisch Gladbach, Germany). Cells were then washed, resuspended in the same buffer and positively selected on a Mini-Macs separation unit through a MS column (Miltenyi biotech).
(§6) In order to assess CI-201 effect on p40 production by macrophages, splenic CD11b cells were incubated over night with IFN-γ and then activated for 24 hours with PGN in the presence CI-201.

IL-10 and IFN-γ = conditions: oral 1 mg/dose 5 times every other day
Method: The effects of CI-201 treatment on cytokine expression in the targeted organ—the aorta, as well as in the spleen, liver, kidneys and small intestine were evaluated using RT-PCR as described hereinabove. Apo-E KO mice were orally administered with 1 mg/dose CI-201 or with 0.2 ml/mouse PBS, 5 times every other day. The expression of the anti-inflammatory cytokine IL-10 and the pro-inflammatory cytokine IFN-γ were determined 8 weeks after final oral administration.

IL-10 [3] = assay: RT-PCR cytokine expression in the aorta: IL-10; format: in vivo, mouse
Method: as §1

IL-10 [4] = conditions: oral 0.1 μg/mouse 5 times every other day
Method: as §2, §3

IL-12p35 = assay: Q-PCR RNA expression in CD11c+ BMDC's: IL-12p35; conditions: CI-201 20 μg/ml, PGN 10 μg/ml
IL12p40 [5] = conditions: human Mo-DC's, PGN 10 μg/ml, 24 hours
Method: (§7) Supernatants were collected 24 hours following activation and the levels of p40 (FIG. 30a) and TNF-α (FIG. 30b) were measured by ELISA.
(§8) Isolation of human monocyte derived dendritic cells (Mo-DC's): PBMCs were isolated from heparinized whole blood from healthy donors by Ficoll-Paque (Amersham, Uppsala, Sweden). Cells were incubated at 4° C. for 15 minutes in buffer containing PBS, 0.5% bovine serum albumin (BSA) and 2 mM EDTA with human CD14 microbeads (Miltenyi biotech) washed and positively selected on a Midi-Macs separation unit through LS column. The resulting cells were counted washed and seeded (10^6/ml) in medium containing RPMI-1640, L-glutamine, 3-mercaptoethanol, 10% FCS, antibiotics (Penicillin, Streptomycin), non essential amino acids, sodium pyruvate, 40 ng/ml of human GM-CSF and 20 ng/ml of human IL-4 (R&D systems, Minneapolis, Minn.). Medium was replaced every other day and cells were used for subsequent experiments on days 5-6 post culturing. Cell purity was >75% as determined by FACS for CD11c.
as §4

IL-23p19 = conditions: CD11c+ BMDC's, CI-201 20 μg/ml, PGN 10 μg/ml
Apo-E KO mice = assay: Assessment of atherosclerosis: lesion area in the aortic sinus; format: in vivo, mouse
CD11c+BMDC's = conditions: 3 hours PGN 10 μg/ml with CI-201 20 μg/ml
Method: Gene Chip analysis: Mouse BMDC's were enriched for CD11c+DC (>90%) with mouse CD11c microbeads from 5-6 days cultures over MS or LS columns (Miltenyi biotech). […] RNA was prepared and used to generate cRNA. Preparation of cRNA, hybridization and scanning was done in the Weizmann Institute of Science (Rehovot, Israel) on the mouse genome 430A 2.0 array (Affymetrix, Santa Clara, Calif.).

IL-12/IL-23p40 = assay: Q-PCR RNA expression in CD11c+ BMDC's: IL-12/IL-23p40; conditions: CI-201 20 μg/ml, PGN 10 μg/ml, first 6 hours following activation, normalized to GAPDH
p40 [6] = conditions: splenic CD11b cells, IFN-γ over night, PGN 24 hours
Method: as §5, §6

TNF-α [7] = conditions: human Mo-DC's, PGN 10 μg/ml, 24 hours
Method: as §7, §8, §4

IFN-γ [8] = conditions: in vivo oral treatment (0.1 μg/feed C57BL/6, ovalbumin; 10 and 100 μg/mouse/feed SJL, PLP 139-151); ex vivo restimulation
Method: (FIG. 26a) C57BL/6 mice were fed in alternate days from day −10 to day +10 with CI-201 (0.1 μg/feed) of PBS. On day 0, mice were immunized with ovalbumin in CFA. On day 10, draining lymph nodes were excised and cells stimulated with ovalbumin. Cells were expanded for a week and then re-stimulated for 4 hours with plate bound anti-CD3 and anti-CD28 (5 μg/ml) in the presence of monensin (2 μM) and tested for cytokine expression by intracellular staining. Results are gated on CD4+ T cells. […] Lymph nodes were collected 10 days later, stimulated ex vivo with 10 μg/ml of PLP 139-151 peptide or 0.5 μg/ml of anti CD3 and three days later supernatants were collected and tested by ELISA for cytokine production.
Lymph nodes were collected 10 days later, stimulated ex vivo with 10 μg/ml of PLP 139-151 peptide or 0.5 μg/ml of anti CD3 and three days later cytokine production from the supernatant was measured using the Duoset ELISA kit (R&D systems, Minneapolis, Minn.).
Ex-vivo ELISA and Intracellular staining: For intracellular staining, C57BL/6 were orally administered with CI-201 (0.1 μg/mouse/feed) or PBS as control, 5 times, once every other day. Dosing volume was 0.2 ml. Subsequently, mice were immunized subcutaneously in two flanks with 200 μl of emulsion containing 200 μg of ovalbumin and MT (100 μg). […]

IL-1 = conditions: BMDC's, PGN activation
Method: Supernatant were collected 24 hours following activation and the levels of IL-6 (FIG. 3M) and IL-1 (FIG. 3N) were measured.
Isolation of bone-marrow derived dendritic cells (BMDC's): Bone-marrow was flushed out with cold RPMI-1640 from mice femur and tibia. A cell suspension was prepared and erythrocytes were removed using red blood cell (RBC) lysis buffer (Beit Haemek, Israel). […] Cells were then washed, resuspended in the same buffer, and depleted from B and T cells on a Midi-Macs separation unit through a LD or LS column (Miltenyi biotech). The depleted cells were then counted, washed and seeded (10^6/ml) in medium containing RPMI-1640, L-glutamine, β-mercaptoethanol, 10% FCS, antibiotics (Penicillin, Streptomycin) and 20 ng/ml of mouse GM-CSF (Peprotech, Rehovot, Israel). Medium was replaced every other day and cells were used for subsequent experiments on days 5-6 post culturing.

p40 [9] = conditions: PBMC's from two donors, IFN-γ over-night, PGN 24 hours; all tested concentrations
Method: (§9) PBMC's from healthy donors were incubated over-night with IFN-γ and then activated with PGN in the presence of CI-201 for another 24 hours. Supernatants were then evaluated for p40 and TNF-α production.

Lewis rats = assay: Adjuvant-induced arthritis (AIA) in Lewis rats; format: in vivo, rat
TNF-α [10] = conditions: IFN-γ, PGN
Method: as §9

IFN-γ [11] = assay: RT-PCR cytokine expression in the aorta: IFN-γ; format: in vivo; conditions: oral 1 mg/mouse 5 times every other day, 8 weeks after final administration
Method: as §1

TNF-α [12] = conditions: BMDC's, activators other than PolyI:C
Method: Isolation of bone-marrow derived dendritic cells (BMDC's): Bone-marrow was flushed out with cold RPMI-1640 from mice femur and tibia. […] Cells were then washed, resuspended in the same buffer, and depleted from B and T cells on a Midi-Macs separation unit through a LD or LS column (Miltenyi biotech). The depleted cells were then counted, washed and seeded (10^6/ml) in medium containing RPMI-1640, L-glutamine, β-mercaptoethanol, 10% FCS, antibiotics (Penicillin, Streptomycin) and 20 ng/ml of mouse GM-CSF (Peprotech, Rehovot, Israel). Medium was replaced every other day and cells were used for subsequent experiments on days 5-6 post culturing.
as §4

CCCCCCCCCCCCCCCCOC[C@H](COP(=O)([O-])OCC[N+](C)(C)C)OCCCCC(=O)O [CI-201, 1-Hexadecyl-2-(5′-Carboxy-butyl)-sn-glycero-3-phosphocholine]
IL-12 expression in the aorta versus PBS (IL-12): reduced levels
RNA expression level of p28 (IL-27p28): did not modify
SAA serum levels (Serum Amyloide A (SAA)): no alterations
production of IL-6 (IL-6): did not impair
p40 production (IL12p40 [1]; BMDC's, 1 hour pre-incubation, activation with PGN (TLR 2/6) 10 μg/ml, 24 hours): significant and dose dependent reduction
p40 secretion (IL12p40 [1]; BMDC's, CpG (TLR9) engagement, only 20 μg/ml of CI-201): significantly inhibit
p40 secretion (IL12p40 [1]; BMDC's, Fc-CD40L activation 1 μg/ml): significant reduction
p40 production (IL12p40 [1]; BMDC's, PolyI:C (TLR3) activation 25 μg/ml): significant and dose dependent p40 inhibition
p40 levels (IL12p40 [1]; BMDC's, activation with LPS (TLR4) 100 ng/ml, intermediated concentrations of CI-201): significant, but small reduction
p40 production (IL12p40 [1]; BMDC's, activation with Pam3CSK4 (TLR1/2) 300 ng/ml, 24 hours): significant p40 inhibition
concentration giving maximal inhibition of p40 production (highest concentration used) (IL12p40 [1]; activated DC's in vitro): 20 µg/mL
TNF-α production levels versus control cells (TNF-α [2]): no major differences
cytokine expression in the spleen and in the small intestine versus PBS (IL-10 and IFN-γ; 8 weeks after final administration): no differences
cytokine expression in the liver and in kidney (IL-10 and IFN-γ; data not shown): No change
IL-10 expression in the aorta, higher than control group (IL-10 [3]; oral 0.025 mg/dose, 8 weeks): 40%
IL-10 expression in the aorta versus PBS (IL-10 [3]; oral 1 mg/mouse 5 times every other day, 8 weeks after final administration): elevated levels
IL-10 serum level (IL-10 [4]; 2 weeks after end of treatment (4 weeks)): decay
IL-10 serum level (IL-10 [4]; end of the treatment (2 weeks)): substantial increase
RNA expression level of p35 (IL-12p35): did not modify
p40 production (IL12p40 [5]): can inhibit p40 production
RNA expression level of p19 (IL-23p19): substantial inhibition
Aortic Sinus Lesion (Apo-E KO mice; oral 0.1 μg/dose, 3 monthly sets of 5 administrations, 12 weeks after first feeding, 26-28 weeks old mice): 228,000±25,772 μm^2
decrease in atherosclerotic lesion in the aortic sinus as compared with the PBS treated group (Apo-E KO mice; oral 0.1 μg/dose, P<0.05): 92%
Aortic Sinus Lesion (Apo-E KO mice; oral 1 μg/dose, 3 monthly sets of 5 administrations, 12 weeks after first feeding, 26-28 weeks old mice): 295,729 ± 20,909 μm^2
Aortic Sinus Lesion (Apo-E KO mice; oral 10 μg/dose, 3 monthly sets of 5 administrations, 12 weeks after first feeding, 26-28 weeks old mice): 272,483 ± 20,505 μm^2
decrease of the aortic sinus lesion versus PBS control (Apo-E KO mice; oral 0.025 mg/dose, 8 weeks, P=0.051): 33%
most effective dose for inhibiting disease progression (Apo-E KO mice; oral 0.1, 1 or 10 μg/dose tested): 0.1 μg/dose
disease progression (lesion area versus base line group) (Apo-E KO mice; oral 0.1, 1 or 10 μg/dose, 3 monthly sets): completely inhibited disease progression; also recorded: inhibited the disease progression
atherogenesis in Apo-E KO mice, oral administration (summary of earlier examples) (Apo-E KO mice; oral administration): substantially inhibited atherogenesis
Aortic Sinus Lesion (Apo-E KO mice; oral gavage 0.025 mg/dose every day (5 times a week) for 8 weeks, male 12 weeks old mice): 125,192±19,824 μm^2
p19 expression (gene chip) (CD11c+BMDC's): reduced p19 expression
p40 RNA expression (gene chip) (CD11c+BMDC's): reduced RNA expression
p40 RNA expression, inhibition compared to control (IL-12/IL-23p40): more than two folds
p40 production levels versus control cells (p40 [6]): no major differences
ability to produce TNF-α (TNF-α [7]): without altering
IFN-γ production by CD4+ T cells (IFN-γ [8]): reduced IFN-γ production
production of IL-1 (IL-1): did not impair
p40 production (p40 [9]): close to complete inhibition
arthritis development (paw swelling, arthritis score, percentage of rats with symptoms) (Lewis rats; continuous treatment, high dose: 5 feedings before induction, then 3 times a week for about 30 days): substantially attenuated arthritis development
paw swelling versus PBS-pretreated rats (Lewis rats; oral pre-treatment 4.0 mg/kg 5 times every other day before AIA induction): significant decrease
mobility (Lewis rats; oral pre-treatment with the higher dose (4 mg/kg) before AIA induction): close to that of normal rats
TNF-α production (TNF-α [10]; PBMC's from donor I): did not impair
TNF-α levels (TNF-α [10]; PBMC's from donor II): modest reduction
IFN-γ expression in the aorta versus PBS (IFN-γ [11]): reduced expression level
production of TNF-α (TNF-α [12]): did not impair
